Measured values published in patent US20030138423A1, “Method of treating inflammation with HIV-1 protease inhibitors and their derivatives” (CEDARS-SINAI MEDICAL CENTER, priority 2001, published 2003).
Entries after “also recorded” stand apart in the source; their conditions may differ.

Assays:
IL-6 = test: LPS-induced IL-6 luciferase activation in HMEC; format: cell-based, human; conditions: 1-hour pretreatment
Description: Interleukin-6 (IL-6) is a known proinflammatory cytokine that mediates development of LPS-induced sepsis and septic shock.

TNF-α = test: LPS-induced TNF-α production in THP-LTR-Luc cells, ELISA; format: cell-based; conditions: THP-LTR-Luc cells (FIG. 9 legend)
Description: After five hours of LPS stimulation, supernatants from HMEC were analyzed for TNF-α production by using an ELISA kit (obtained from R&D Systems; Minneapolis, Minn.) according to manufacturer's instructions. All data for TNF-α represent the average of triplicate samples ±S.D. Each experiment was repeated at least twice.

20S proteasome = 20S proteasome (Mus musculus, UniProt O55234); conditions: literature; cited from earlier work
NF-κB [1] = test: PSM-induced NF-κB luciferase activation in HMEC; format: cell-based, human; conditions: one-hour pretreatment
NF-κB [2] = test: STF-induced NF-κB luciferase activation in HMEC; format: cell-based, human; conditions: one-hour pretreatment
IκB-α = test: LPS-induced IκB-α degradation in HMEC, Western blot; format: cell-based, human; conditions: HMEC pretreated one hour, LPS 30, 60, 90 minutes
Description: Conditioned endothelial cells were lysed for 30 minutes on ice in a lysis buffer containing 0.1 mM ethylenediamine tetra-acetic acid (“EDTA,” available from Sigma), 10 mM NaF, 1 mM Na3VO4, 0.1% Triton X-100, 20 mM Tris-HCl (pH 7.5), and 1 μg/ml each of the protease inhibitors pepstatin, leupeptin, aprotinin, antipain, and chymostatin (all available from Roche).
Following lysis, cell debris was removed by centrifugation (14,000×g, 4° C., 1-2 minutes). Protein concentrations were determined using the Bradford assay. 50 μg of total protein was added in Laemmli buffer, boiled for 5 minutes, resolved by 10% sodium dodecyl sulphate polyacrylamide gel electrophoresis (“SDS-PAGE”) in Tris/glycine/SDS buffer (25 mM Tris, 250 mM glycine, 0.1% SDS), and blotted onto Immunobilon P transfer membranes (obtained from Amersham Pharmacia Biotech UK Ltd.; Buckinghamshire, England, hereinafter “Amersham”) (100 V, 1.5 hours, 4° C.). […] Membranes were thereafter and washed five times in PBST, and bands were detected using ECL reagents (obtained from Amersham) according to manufacturer's description.
Upon exposure of immune system cells to bacterial and mycobacterial antigens, IκB-α degradation is the key step before NF-κB activation. We assessed the effect of nelfinavir pretreatment of HMEC on LPS-induced IκB-α degradation. […] IκB-α degradation was assessed by Western Blot analysis for phosphorylated IκB-α.

HMEC = test: LDH release (cell death) in HMEC; format: cell-based, human; conditions: pretreatment prior to LPS stimulation
Description: For the quantification of nelfinavir-induced cell death, lactate dehydrogenase (LDH) activity in HMEC culture supernatants was measured with a cytotoxicity detection kit (obtained from Roche Diagnostics; Indianapolis, Ind., hereinafter “Roche”) according to manufacturer's instructions. Percentage of LDH activity in the supernatants was calculated according to the following: [(Experimental Value—LDH activity released from untreated cells)/(Maximum Releasable LDH Activity in the Cells by 1% Triton X-100-LDH Activity Released from Untreated Cells)]×100.

NF-κB [3] = test: TNF-α-induced NF-κB activation in HMEC; format: cell-based, human; conditions: one-hour pretreatment, TNF-α 100 ng/ml
[4] = biological target: T1, erythrocyte 20S proteasome (Homo sapiens, UniProt P28074); test: 20S Proteasome Assay, Suc-LLVY-AMC substrate; format: biochemical; conditions: SDS-preactivated erythrocyte 20S proteasome
T1 construct: purchased Biomol Research Laboratories, Inc; host or cells: erythrocytes (purified native complex)
Description: The effect of nelfinavir on 20S proteasome activity was assessed using a 20S Proteasome Assay Kit (obtained from Biomol Research Laboratories, Inc.; Plymouth Meeting, Pa.) according to manufacturer's instructions. Briefly, erythrocyte 20S proteasome that is preactivated by SDS was added to Suc-LLVY-AMC fluorogenic peptide substrate, which is used to measure the chymotrypsin like peptidase activity, with or without nelfinavir. A proteasome inhibitor, lactacystin, was included as a control. The microtiter plate was read at an approximate excitation of 360 nm and at emission 460 nm. All data represent the average of triplicate samples ±S.D.

NF-κB [5] = test: LPS-induced NF-κB luciferase activation in HMEC; conditions: pretreatment before LPS, nelfinavir 1, 3, 6 μg/ml
HIV-LTR = test: LPS-induced HIV-LTR luciferase activation in HMEC; conditions: nelfinavir 1, 3, 6 μg/ml (FIG. 2) or 0.5, 2, 4 μg/ml (FIG. 6)
[6] = test system: lymphocytic choriomeningitis virus (LCMV); conditions: mice infected with LCMV, literature; cited from earlier work
[7] = test system: MB-1 (X) and/or LMP7 proteasome subunits; conditions: vinyl sulfone inhibitor 125I-NLVS, literature; cited from earlier work

| Compound | LPS-induced IL-6 luciferase activation (IL-6) | LPS-induced TNF-α production (TNF-α) | chymotrypsin-like activity of the 20S proteasome (20S proteasome) | PSM-induced NF-κB activation (percent NF-κB luciferase activity) (NF-κB [1]) | STF-induced NF-κB activation (percent NF-κB luciferase activity) (NF-κB [2]) | LPS-induced IκB-α degradation (IκB-α) | cell death (LDH release) (HMEC) | TNF-α-induced NF-κB activation (NF-κB [3]) | chymotrypsin-like activity of 20S proteasome [4] | LPS-induced NF-κB activation (percent NF-κB luciferase activity) (NF-κB [5]) | LPS-induced HIV-LTR activation (percent HIV-LTR luciferase activity) (HIV-LTR) | LCMV replication [6] | protection of proteasome subunits from covalent active site modification [7] |
| --- | --- | --- | --- | --- | --- | --- | --- | --- | --- | --- | --- | --- | --- |
| CC(C)(C)NC(=O)[C@@H]1CN(Cc2cccnc2)CCN1C[C@@H](O)C[C@@H](Cc1ccccc1)C(=O)N[C@H]1c2ccccc2C[C@H]1O [indinavir] | blocked LPS-induced IL-6 luciferase activation | blocked TNF-α production | no inhibition at all |  |  |  |  |  |  |  |  |  |  |
| Cc1c(O)cccc1C(=O)N[C@@H](CSc1ccccc1)[C@H](O)CN1C[C@H]2CCCC[C@H]2C[C@H]1C(=O)NC(C)(C)C [nelfinavir] | blocked LPS-induced IL-6 luciferase activation | blocked production to a lesser extent | no inhibition at all | blocked NF-κB activation; also recorded: blocked both STF and PSM | blocked NF-κB activation; also recorded: blocked both STF and PSM | markedly less LPS-induced IκB-α degradation; also recorded: delayed the degradation; also recorded: a delay in LPS-induced IκB-α degradation | without inducing apoptosis or death of the cells; also recorded: did not induce cell death; also recorded: not induced | down-regulated | did not inhibit the chymotrypsin-like activity of 20s proteasome | blocked LPS-induced NF-κB activation in a dose-dependent manner; also recorded: decreased the NF-κB activity | blocked LPS-induced HIV-LTR activation in a dose-dependent manner |  |  |
| CC(C)c1nc(CN(C)C(=O)N[C@H](C(=O)N[C@@H](Cc2ccccc2)C[C@H](O)[C@H](Cc2ccccc2)NC(=O)OCc2cncs2)C(C)C)cs1 [ritonavir] | blocked LPS-induced IL-6 luciferase activation | blocked production to a lesser extent | selectively inhibit the chymotrypsin-like activity of the 20S proteasome |  |  |  |  | down-regulated |  | blocked LPS-induced NF-κB activation; also recorded: more potent than indinavir; also recorded: down-regulation of LPS-induced NF-κB activation |  | not affected | protected the MB-1 (X) and/or LMP7 proteasome subunits from covalent active site modification |
| CC(C)(C)NC(=O)[C@@H]1C[C@@H]2CCCC[C@@H]2CN1C[C@@H](O)[C@H](Cc1ccccc1)NC(=O)[C@H](CC(N)=O)NC(=O)c1ccc2ccccc2n1 [saquinavir] | blocked LPS-induced IL-6 luciferase activation | blocked TNF-α production | inhibited chymotrypsin-like activity to a significantly lesser degree |  |  |  |  | down-regulated |  | blocked LPS-induced NF-κB activation; also recorded: more potent than indinavir; also recorded: down-regulation of LPS-induced NF-κB activation |  |  |  |
